Measurements reported in patent US8669271B2 (Boehringer Ingelheim International GmbH, priority 2010, dated 2014).
pEC50: −log10 of the molar value.

The molecules below were run against T1, human GPR119 (Homo sapiens, UniProt Q8TDV5) (assay: AlphaScreen cAMP assay in Min-6/hGPR119 cells (activation of GPR119, intracellular cAMP)). Conditions: MIN6 cells stably transfected with human GPR119; cAMP by AlphaScreen after 45 minutes incubation at room temperature.
T1 construct: expression vector for human GPR119 cDNA (Acc. No. NP_848566); expressed in transfected cells
T1 sequence (Q8TDV5 1-335): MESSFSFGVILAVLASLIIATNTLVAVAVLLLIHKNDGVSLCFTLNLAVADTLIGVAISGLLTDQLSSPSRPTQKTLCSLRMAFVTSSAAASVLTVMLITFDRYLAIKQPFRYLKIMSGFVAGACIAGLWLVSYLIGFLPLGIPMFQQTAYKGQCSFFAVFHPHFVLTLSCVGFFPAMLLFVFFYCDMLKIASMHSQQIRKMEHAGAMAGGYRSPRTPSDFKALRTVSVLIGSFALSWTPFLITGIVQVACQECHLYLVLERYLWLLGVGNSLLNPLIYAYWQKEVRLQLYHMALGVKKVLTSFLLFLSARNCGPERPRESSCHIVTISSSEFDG
Type: cell-based
Method in brief: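 MIN6 cells stably expressing human GPR119, seeded 24 h before treatment; compounds applied 45 min at ~20 °C in Hepes-buffered saline pH 7.4 with 0.5 mM IBMX, 0.1% BSA, 1% DMSO final. Intracellular cAMP measured by AlphaScreen.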

SMILES | pEC50
CC(=O)Nc1ccc(-c2ccc3c(c2)CC(C2CCN(C(=O)OC(C)C)CC2)O3)nn1 (centres unmarked) [Example 162, 4-[5-(6-Acetylamino-pyridazin-3-yl)-2,3-dihydro-benzofuran-2-yl]-piperidine-1-carboxylic acid isopropyl ester] | 6.32
CC(=O)Nc1ccc(-c2ccc3c(c2)CC(C2CCN(C(=O)OC(C)C)CC2)O3)c(C)n1 (centres unmarked) [Example 163] | 6.53
Cc1c(-c2ccc3c(c2)CC(C2CCN(C(=O)OC(C)C)CC2)O3)cnn1C (centres unmarked) [Example 165] | 5.73
COc1cnnc(-c2ccc3c(c2)CC(C2CCN(C(=O)OC(C)C)CC2)O3)c1 (centres unmarked) [Example 167] | 6.07
CC(C)OC(=O)N1CCC(C2Cc3cc(-c4cnn(C)c4)ccc3O2)CC1 (centres unmarked) [Example 168] | 5.72
CC(=O)Nc1cc(-c2ccc3c(c2)CC(C2CCN(C(=O)OC(C)C)CC2)O3)ccc1C (centres unmarked) [Example 169] | 5.50
Cc1nn(C)cc1-c1ccc2c(c1)CC(C1CCN(C(=O)OC(C)C)CC1)O2 (centres unmarked) [Example 171] | 6.24
CC(C)OC(=O)N1CCC(C2Cc3cc(-c4cnc(NC(=O)C(C)(C)C)s4)ccc3O2)CC1 (centres unmarked) [Example 173] | 6.43
CNc1ncc(-c2ccc3c(c2)CC(C2CCN(C(=O)OC(C)C)CC2)O3)cn1 (centres unmarked) [Example 174] | 6.21
COc1cnc(-c2ccc3c(c2)CC(C2CCN(C(=O)OC(C)C)CC2)O3)nc1 (centres unmarked) [Example 175] | 5.48
CC(C)OC(=O)N1CCC(C2Cc3cc(-c4cnccn4)ccc3O2)CC1 (centres unmarked) [Example 176] | 6.31
CC(=O)Nc1nc(C)c(-c2ccc3c(c2)CC(C2CCN(C(=O)OC(C)C)CC2)O3)s1 (centres unmarked) [Example 178] | 5.92

Next, values leading:

pEC50 | SMILES
7.47 | CC(C)OC(=O)N1CCC(C2Cc3cc(-c4ccc(C(=O)NCc5ccccn5)cc4)ccc3O2)CC1 (centres unmarked) [Example 157]
6.63 | CC(C)OC(=O)N1CCC(C2Cc3cc(-c4ccc(CC(=O)NCc5ccccn5)cc4)ccc3O2)CC1 (centres unmarked) [Example 158]
7.60 | CC(C)OC(=O)N1CCC(C2Cc3cc(-c4ccc(C(=O)N(C)CC#N)cc4)ccc3O2)CC1 (centres unmarked) [Example 159]
7.51 | CC(C)OC(=O)N1CCC(C2Cc3cc(-c4ccc(CC(=O)N(C)CC#N)cc4)ccc3O2)CC1 (centres unmarked) [Example 160]
7.59 | CC(=O)Nc1ccc(-c2ccc3c(c2)CC(C2CCN(C(=O)OC(C)C)CC2)O3)cn1 (centres unmarked) [Example 161, 4-[5-(6-Acetylamino-pyridin-3-yl)-2,3-dihydro-benzofuran-2-yl]-piperidine-1-carboxylic acid isopropyl ester]
7.05 | CC(=O)Nc1ccc(-c2ccc3c(c2)CC(C2CCN(C(=O)OC(C)C)CC2)O3)cc1 (centres unmarked) [Example 164]
6.72 | CC(C)OC(=O)N1CCC(C2Cc3cc(-c4cncs4)ccc3O2)CC1 (centres unmarked) [Example 166]
7.21 | CC(C)OC(=O)N1CCC(C2Cc3cc(-c4ccc(C#N)s4)ccc3O2)CC1 (centres unmarked) [Example 170]
6.54 | CC(C)OC(=O)N1CCC(C2Cc3cc(-c4ccc(CN(C)S(C)(=O)=O)cc4)ccc3O2)CC1 (centres unmarked) [Example 172]
6.70 | CC(=O)Nc1ncc(-c2ccc3c(c2)CC(C2CCN(C(=O)OC(C)C)CC2)O3)s1 (centres unmarked) [Example 177]
6.93 | COc1cc(-c2ccc3c(c2)CC(C2CCN(C(=O)OC(C)C)CC2)O3)ccc1NC(C)=O (centres unmarked) [Example 179]
